Legend:
[1] = system: histamine stimulated bullfrog gastric mucosa; assay: H+ secretion by histamine-stimulated bullfrog gastric mucosa (chambered mucosa, titration); design: species or system bullfrogs (Rana catesbeiana); settings: for activity at 500 µM: Aquarana catesbeiana, 0.5 mM drug in the secretory solution, histamine stimulated steady-state H+ secretory rate, mean ±SEM, read-out: Rate of H^+ transport (% of control); for reversibility of the inhibition of H^+ transport by elevation of secretory K^+: K+ substituted for Na+ of the secretory solution; for inhibitory effect relative to the other polyamine: spermine versus spermidine
Method: This experiment was carried out with gastric mucosa from bullfrogs (Rana catesbeiana). […] The area of the mounted mucosae was 1.5 cm^2. The bathing solutions were bubbled continuously with […] -5% CO2.
The normal nutrient soliution had the following composition (in mM): NaCl 87, KCl 4, CaCl2 2, MgCl2 1, KH2 PO4 1, NaHCO3 18, and glucose 11.
All experiments were conducted under open-circuit conditions at room temperature. The mucosal solutions were collected at 15-minute intervals and placed in thoroughly washed plastic vials. The K^+ content of the secretory medium was determined by atomic absorption spectrophotometer (model 360 Perkin-Elmer). The H^+ secretion was quantitated by titration using 1 mM NaOH to pH 6.5 while gassing with 100% N2.
The H^+ secretory rates are the steady-stage values before (None) and after addition of the drugs attained by the histamine stimulated mucosa. Values are mean ±SEM.

[2] = system: gastric (H^+ +K^+)-ATPase; settings: vesicles preequilibrated in 150 mM KCl with 0.5 mM compound for 48 hours
Method: The gastric microsomal membranes were harvested. All procedures were carried out at 0°-4° C. Briefly, the fundic mucosa from the pig was desquamated and scraped to collect the oxyntic cell-enriched fractions. The mucosal scraping was homogenized gently in a medium consisting of 250 mM sucrose, 0.2 mM EDTA, and 0.2 mM Pipes buffer (pH 6.8) using a loose pestle homogenizer. The homogenate was centrifuged at 8000 g for 5 min. The process was repeated three times. All the supernatants were pooled together and layered over 40 ml of 37% sucrose in 84-ml capacity screw cap tubes and centrifuged at 100,000 g for 5 hours. The microsomal membrane bands appeared at the interface of soluble supernatant and 37% sucrose. The microsomal vesicle bands were collected, diluted with homogenizing medium, and centrifuged at 100,000 g for 90 min. The pellet was suspended in the homogenizing medium with a protein concentration of 0.5 mg/ml. The collected cellular vesicules were inverted, i.e., the interior of the vesicules originally faced the lumen side of the stomach. Vesicular accumulation of H^+ was measured at room temperature. The method uses the change in fluorescence intensity (quenching) of 9-amino-acridine or acridine orange which is proportional to the amount of dye taken up by the microsomes. The amount of dye taken up is a sensitive measure of intravesicular H^+ concentration. […]

Row | Structure (SMILES) | activity at 500 µM [1] | reversibility of the inhibition of H^+ transport by elevation of secretory K^+ [1] | inhibition of gastric H^+ transport, added into the nutrient solution ([1]; nutrient solution, concentration not given) | inhibition of gastric H^+ transport, added into the secretory solution ([1]; secretory solution, concentration not given) | inhibitory effect relative to the other polyamine [1] | H^+ uptake by the vesicles [2] | inhibition of H^+ transport, added into the secretory solution ([1]; 0.25 mM in secretory solution (lumen side), inhibition increased with concentration) | rate of H^+ transport in K+-depleted mucosa ([1]; 1 mM together with 10 mM K+ in the secretory solution, within 30 min) | reversibility of inhibition by elevation of secretory K^+ in K+-depleted mucosa ([1]; 1 mM with 10 mM K+ in secretory solution, then K+ elevated) | effect on H^+ transport, added to nutrient solution ([1]; 0.5 and 1.0 mM, from the nutrient side)
1 | NCCCCN [Putrescine, putrescine, reference compound] | 95 ± 10% |  |  |  |  |  |  |  |  | 
2 | NCCCCNCCCN [Spermidine, spermidine] | 55 ± 2% | could also be reversed | not into the nutrient solution | inhibits gastric H^+ transport | much lower than spermine |  |  |  |  | 
3 | NCCCNCCCCNCCCN [Spermine, spermine] | 28 ± 6% | completely reversible |  |  | more potent than spermidine | totally obliterated | remarkable inhibition of H^+ transport | near zero | could be reversed | did not have any appreciable effect

Source: patent publication US4591605A, “Method and ingestible formulation for inhibiting the secretion of stomach acid” (Research Foundation of State University of New York, priority 1982, dated 1986)
